The source of these data is article PMC10083437, “Small molecules targeting Pin1 as potent anticancer drugs” (Frontiers in Pharmacology, 2023).

For assay [1], the target named is T1, Pin1 (Homo sapiens, UniProt Q13526).
T1 construct: human Pin1 with C-terminal His tag (pET-30a-pin1, E. coli BL21)
Kind of assay: SPR (Biacore S200, Pin1 immobilized on CM5); also PPIase assay IC50 […]. Format: binding.

The target of assay [2] is T1, Pin1. The assay is described as above. Format: binding. This is another data set of the same source.

Like-named read-outs stand apart in the source and are kept apart here.

T1 sequence (Q13526 whole entry): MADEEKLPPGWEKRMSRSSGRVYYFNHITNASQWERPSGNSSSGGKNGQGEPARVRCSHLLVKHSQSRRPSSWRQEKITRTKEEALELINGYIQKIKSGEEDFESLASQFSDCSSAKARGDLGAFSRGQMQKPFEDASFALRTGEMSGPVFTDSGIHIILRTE

In turn, `NS(=O)(=O)c1ccc(-c2[nH]c3ccc(Cl)cc3c2-c2ccc(Cl)cc2)cc1` [HWH8-33, 2-(4-aminosulfonylphenyl)-3-(4-chlorophenyl)-5-chloro-indole] had a Kd in assay [1] of 9.79 µM.
In turn, `NS(=O)(=O)c1ccc(-c2[nH]c3ccc(Cl)cc3c2-c2cccc(Cl)c2)cc1` [HWH8-36, 2-(4-aminosulfonylphenyl)-3-(3-chlorophenyl)-5-chloro-indole] came in with a Kd in assay [2] of 4.87 µM.
